By IC50 is commonly meant the concentration that inhibits the measured activity by half.

Structures are written as SMILES. Some results are limits rather than exact numbers.

Common to all, as to format: functional, cell-based
The subject of one test is HeLa. Briefly: Cytotoxicity against Homo sapiens (human) HeLa cells after 48 hr by MTT assay. On the technique in general: Tetrazolium assays rely on reduction of a dye to a coloured formazan, in cell work by metabolically active cells.
The subject of another test is HL-60. Briefly: Cytotoxicity against Homo sapiens (human) HL60 cells after 48 hr by MTT assay.
A further test has as its system MDA-MB-231. Briefly: Cytotoxicity against Homo sapiens (human) MDA-MB-231 cells after 48 hr by MTT assay. The note with it: MDA-MB-231, 48 h.
The next test concerns Raji. Briefly: Cytotoxicity against Homo sapiens (human) Raji cells after 48 hr by MTT assay.
Another test has as its system MCF7. Briefly: Cytotoxicity against Homo sapiens (human) MCF7 cells after 48 hr by MTT assay.
[1] abbreviates: Homo sapiens, HL-60, 48 h, read-out: IC50.
Setting [2] is: Homo sapiens, Raji, 48 h, read-out: IC50.
Where [3] appears, read: Homo sapiens, MCF7, 48 h, read-out: IC50.

Regarding `CN1CCN(C(=O)c2cn(-c3ccccc3)nc2-c2cccnc2)CC1`, the IC50 was over 100 µM with HeLa; over 100 µM in the test with HL-60 (setting [1]); over 100 µM in the test with MDA-MB-231; 75.6 µM in the test with Raji (setting [2]); over 100 µM in the test on MCF7 (setting [3]).

`O=C(O)c1cn(-c2ccccc2)nc1-c1ccncc1`: the half-maximal inhibitory concentration (IC50) in the test with HeLa, in the test with HL-60 (setting [1]), with MDA-MB-231, with Raji (setting [2]) and with MCF7 (setting [3]) was over 100 µM throughout.

Take `O=C(O)c1cn(-c2ccccc2)nc1-c1cccnc1`: the 50% inhibitory concentration (IC50) in the test with HeLa, with HL-60 (setting [1]), with MDA-MB-231, with Raji (setting [2]) and in the test on MCF7 (setting [3]) was over 100 µM each time.

With `O=C(c1cn(-c2ccccc2)nc1-c1cccnc1)N1CCN(c2ccc(C(F)(F)F)cc2)CC1`, the concentration for half-maximal inhibition (IC50) in the test on HeLa was 28.6 µM; with HL-60 (setting [1]), 16.9 µM; in the test with MDA-MB-231, over 100 µM; in the test on Raji (setting [2]), 15.1 µM; with MCF7 (setting [3]), 75.3 µM.

For the molecule `COc1ccc(OC(=O)c2cn(-c3ccccc3)nc2-c2cccnc2)cc1`, the IC50 in the test on HeLa, in the test on HL-60 (setting [1]), in the test with MDA-MB-231, with Raji (setting [2]) and with MCF7 (setting [3]) was over 100 µM throughout.

In the case of `CC(C)c1cccc(OC(=O)c2cn(-c3ccccc3)nc2-c2cccnc2)c1`, the 50% inhibitory concentration (IC50) is over 100 µM in the test on HeLa; 23.7 µM in the test with HL-60 (setting [1]); over 100 µM in the test with MDA-MB-231; 11.6 µM with Raji (setting [2]); 75.5 µM in the test on MCF7 (setting [3]).

For the molecule `CC(C)(C)c1ccc(OC(=O)c2cn(-c3ccccc3)nc2-c2cccnc2)cc1`, the IC50 with HeLa is over 100 µM; in the test on HL-60 (setting [1]), over 100 µM; in the test on MDA-MB-231, over 100 µM; in the test on Raji (setting [2]), 42.3 µM; with MCF7 (setting [3]), over 100 µM.

With `Cc1ccc(C(C)C)c(OC(=O)c2cn(-c3ccccc3)nc2-c2cccnc2)c1`, the IC50 in the test with HeLa was over 100 µM; with HL-60 (setting [1]) it was 22.7 µM; with MDA-MB-231, over 100 µM; with Raji (setting [2]), 20.6 µM; with MCF7 (setting [3]) it was 84.2 µM.

With `O=C(Oc1ccc(-c2ccccc2)cc1)c1cn(-c2ccccc2)nc1-c1cccnc1`, the half-maximal inhibitory concentration (IC50) in the test with HeLa was over 100 µM; in the test with HL-60 (hl-60) it was “ND(Insoluble)”; in the test on MDA-MB-231 it was over 100 µM; in the test on Raji (raji), “ND(Insoluble)”; with MCF7 (mcf7) it was “ND(Insoluble)”.

Regarding `O=C(Oc1ccc2ccccc2c1)c1cn(-c2ccccc2)nc1-c1cccnc1`, the concentration for half-maximal inhibition (IC50) with HeLa is over 100 µM; in the test with HL-60 (hl-60), “ND(Insoluble)”; in the test on MDA-MB-231 it was over 100 µM; in the test on Raji (raji), “ND(Insoluble)”; with MCF7 (mcf7) it was “ND(Insoluble)”.

`O=C(NCc1ccccc1)c1cn(-c2ccccc2)nc1-c1ccncc1`: the IC50 in the test on HeLa, in the test on HL-60 (setting [1]), with MDA-MB-231, in the test with Raji (setting [2]) and in the test on MCF7 (setting [3]) was over 100 µM in each case.

As for `O=C(c1cn(-c2ccccc2)nc1-c1ccncc1)N1CCOCC1`, the IC50 with HeLa, in the test on HL-60 (setting [1]), in the test with MDA-MB-231, with Raji (setting [2]) and with MCF7 (setting [3]) was over 100 µM each time.

As for `O=C(c1cn(-c2ccccc2)nc1-c1ccncc1)N1CCC(Cc2ccccc2)CC1`, the IC50 was 32.8 µM in the test on HeLa; 16.4 µM in the test on HL-60 (setting [1]); over 100 µM in the test on MDA-MB-231; 21.3 µM in the test on Raji (setting [2]); 56.4 µM in the test with MCF7 (setting [3]).

Regarding `CN1CCN(C(=O)c2cn(-c3ccccc3)nc2-c2ccncc2)CC1`, the IC50 in the test with HeLa, in the test with HL-60 (setting [1]), in the test with MDA-MB-231, in the test on Raji (setting [2]) and in the test with MCF7 (setting [3]) was over 100 µM in each case.

On to `O=C(c1cn(-c2ccccc2)nc1-c1ccncc1)N1CCN(c2ccccc2)CC1`, for which the IC50 in the test on HeLa, in the test on HL-60 (setting [1]), with MDA-MB-231, in the test with Raji (setting [2]) and in the test with MCF7 (setting [3]) was over 100 µM in each case.

Consider `O=C(c1cn(-c2ccccc2)nc1-c1ccncc1)N1CCN(c2ccc(C(F)(F)F)cc2)CC1`, for which the IC50 is over 100 µM in the test with HeLa; over 100 µM in the test on HL-60 (setting [1]); over 100 µM in the test with MDA-MB-231; 9.63 µM with Raji (setting [2]); over 100 µM with MCF7 (setting [3]).

In the case of `O=C(c1cn(-c2ccccc2)nc1-c1ccncc1)N1CCN(c2ccncc2)CC1`, the half-maximal inhibitory concentration (IC50) with HeLa, in the test with HL-60 (setting [1]), in the test on MDA-MB-231, with Raji (setting [2]) and with MCF7 (setting [3]) was over 100 µM each time.

For `COc1ccc(OC(=O)c2cn(-c3ccccc3)nc2-c2ccncc2)cc1`, the half-inhibitory concentration (IC50) in the test on HeLa, in the test on HL-60 (setting [1]), with MDA-MB-231, in the test on Raji (setting [2]) and in the test with MCF7 (setting [3]) was over 100 µM throughout.

Consider `CCc1ccc(OC(=O)c2cn(-c3ccccc3)nc2-c2ccncc2)cc1`, for which the concentration for half-maximal inhibition (IC50) with HeLa is over 100 µM; with HL-60 (hl-60), “ND(Insoluble)”; in the test on MDA-MB-231, over 100 µM; in the test on Raji (raji) it was “ND(Insoluble)”; in the test on MCF7 (mcf7) it was “ND(Insoluble)”.

Consider `CC(C)c1cccc(OC(=O)c2cn(-c3ccccc3)nc2-c2ccncc2)c1`, for which the half-inhibitory concentration (IC50) in the test with HeLa is over 100 µM; in the test on HL-60 (hl-60), “ND(Insoluble)”; in the test on MDA-MB-231 it was over 100 µM; with Raji (raji), “ND(Insoluble)”; in the test with MCF7 (mcf7) it was “ND(Insoluble)”.

On to `CC(C)(C)c1ccc(OC(=O)c2cn(-c3ccccc3)nc2-c2ccncc2)cc1`, for which the IC50 was 35.4 µM with HeLa; 18.7 µM in the test with HL-60 (setting [1]); 34.5 µM in the test with MDA-MB-231; 33.3 µM in the test on Raji (setting [2]); 32.2 µM with MCF7 (setting [3]).

With `Cc1ccc(C(C)C)c(OC(=O)c2cn(-c3ccccc3)nc2-c2ccncc2)c1`, the 50% inhibitory concentration (IC50) in the test with HeLa was over 100 µM; in the test on HL-60 (setting [1]), 17.8 µM; with MDA-MB-231, over 100 µM; in the test with Raji (setting [2]) it was 10.6 µM; in the test with MCF7 (setting [3]), over 100 µM.

For `O=C(Oc1ccc(-c2ccccc2)cc1)c1cn(-c2ccccc2)nc1-c1ccncc1`, the concentration for half-maximal inhibition (IC50) in the test with HeLa is over 100 µM; in the test on HL-60 (hl-60), “ND(Insoluble)”; with MDA-MB-231, over 100 µM; with Raji (raji), “ND(Insoluble)”; in the test with MCF7 (mcf7), “ND(Insoluble)”.

In the case of `O=C(Oc1ccc2ccccc2c1)c1cn(-c2ccccc2)nc1-c1ccncc1`, the IC50 in the test with HeLa is over 100 µM; with HL-60 (setting [1]) it was over 100 µM; in the test with MDA-MB-231, over 100 µM; in the test with Raji (setting [2]), 12.1 µM; in the test with MCF7 (setting [3]), 44.5 µM.

`O=C(NCc1ccccc1)c1cn(-c2ccccc2)nc1-c1cccnc1`: the 50% inhibitory concentration (IC50) was over 100 µM in the test on HeLa; “ND(Insoluble)” with HL-60 (hl-60); over 100 µM in the test with MDA-MB-231; “ND(Insoluble)” in the test on Raji (raji); “ND(Insoluble)” in the test on MCF7 (mcf7).

As for `O=C(c1cn(-c2ccccc2)nc1-c1cccnc1)N1CCOCC1`, the IC50 in the test with HeLa, with HL-60 (setting [1]), in the test on MDA-MB-231, in the test with Raji (setting [2]) and in the test with MCF7 (setting [3]) was over 100 µM in each case.

As for `O=C(c1cn(-c2ccccc2)nc1-c1cccnc1)N1CCC(Cc2ccccc2)CC1`, the half-inhibitory concentration (IC50) is 25.3 µM in the test with HeLa; 16.1 µM in the test on HL-60 (setting [1]); over 100 µM in the test on MDA-MB-231; 8.12 µM with Raji (setting [2]); 32.2 µM with MCF7 (setting [3]).

For `O=C(c1cn(-c2ccccc2)nc1-c1cccnc1)N1CCN(c2ccccc2)CC1`, the half-inhibitory concentration (IC50) in the test with HeLa is over 100 µM; in the test with HL-60 (setting [1]) it was 24.5 µM; in the test with MDA-MB-231 it was over 100 µM; in the test with Raji (setting [2]), 32.8 µM; with MCF7 (setting [3]) it was over 100 µM.

`O=C(c1cn(-c2ccccc2)nc1-c1cccnc1)N1CCN(c2ccncc2)CC1`: the half-inhibitory concentration (IC50) in the test with HeLa, in the test on HL-60 (setting [1]), with MDA-MB-231, in the test on Raji (setting [2]) and with MCF7 (setting [3]) was over 100 µM throughout.

The values above are taken from ChEMBL document CHEMBL3046314, “Synthesis, cytotoxicity, and molecular properties prediction of novel 1,3-diarylpyrazole derivatives” (Med Chem Res, 2013).
